Results on one molecule are retold here after patent publication US10106577B2, “Agonists of neurotrophin receptors and their use as medicaments” (BIONURE FARMA, S.L., priority 2010, dated 2018).

Series [1] deals with T1, TrkA (Rattus norvegicus, UniProt P35739).
T1 construct: PC12 cells expressing both TrkA and p75 receptors were cultivated in normal growth medium; endogenous in cells; host or cells: PC12
Briefly: Western blot analysis of receptor phosphorilation in PC12 cells. Format: cell-based. The note with it: G79 100 ng/ml; 5-15-30-60 min. The procedure: (§1) Neurotrophin receptors TrkA and TrkB activation (phosphorilation) was evaluated by Western-blot as follows: PC12 cell growing on 24-well plates were treated with low serum medium (0.5% FBS) to reduce the basal level of phosphorilation. After 24 h, the PC12 cells were treated with G79 (100 ng/ml), then recovered and lysated in 300 μl of ice-cold lysis buffer (Sigma Aldrich) at 5-15-30-60 min. After sonication, cell debris were removed by centrifugation (14000 rpm for 10 min) and equal amount of supernatant (30-35 μg/well) were loaded and separated by 10% polyacrilamide gel electrophoresis (PAGE) and then electrobloted onto PVDF membranes. Membranes were blocked by 5% nonfat milk and then sequentially incubated with the primary antibodies [phospho-TrkA, Tyr490 (Cell Signaling) or phospho-TrkB, Tyr515 (NovusBiological)] 1:1000 over-night and the secondary antibodies 1:2000, for 1 h at room temperature. Blots were processed for visualization by chemiluminescence system (Amersham) and exposed to Kodak film to visualize the fluorographic image.
On the technique in general: A western blot detects proteins with antibodies after separation by electrophoresis.

Series [2] addresses T2, TrkB (Rattus norvegicus, UniProt Q63604).
T2 construct: endogenous in cells; host or cells: PC12
The series is described as above. Format: cell-based. Particulars: G79 100 ng/ml; 5-15-30-60 min. The procedure:
as §1

For series [3], the target named is T3, p75 receptor (Rattus norvegicus, UniProt P07174).
T3 construct: PC12 cells expressing both TrkA and p75 receptors were cultivated in normal growth medium; endogenous in cells; host or cells: PC12
T3 sequence (P07174 30-425): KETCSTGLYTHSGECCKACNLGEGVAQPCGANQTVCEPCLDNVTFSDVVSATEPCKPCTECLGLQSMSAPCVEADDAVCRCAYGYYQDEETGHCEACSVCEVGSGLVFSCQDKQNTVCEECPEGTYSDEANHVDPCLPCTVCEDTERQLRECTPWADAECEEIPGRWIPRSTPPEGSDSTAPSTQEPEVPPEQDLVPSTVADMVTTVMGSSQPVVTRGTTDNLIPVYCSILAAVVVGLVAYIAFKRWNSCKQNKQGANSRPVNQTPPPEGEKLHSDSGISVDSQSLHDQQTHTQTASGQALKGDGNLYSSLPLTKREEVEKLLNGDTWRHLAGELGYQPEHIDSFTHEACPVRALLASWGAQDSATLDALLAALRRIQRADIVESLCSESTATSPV
Briefly: Cytometry binding assay in PC12 with anti-TrkA antibody. Particulars: cells pre-incubated with anti-TrkA antibody; growing NGF. The procedure:
In order to assess the binding of G79 to the TrkA (PC12 cells) and TrkB receptors (SH-SY5Y), we performed competitive binding assays by flow cytometry. In order to assess the binding competition between p75 and TrkA, PC12 cells expressing both TrkA and p75 receptors were cultivated in normal growth medium. After detaching cells by trypsin solution, 200,000 cells/well were added to tubes for the following incubations. One tube contains control untreated cells. In the other tubes, cells were pre-incubated for 45 minutes with different concentrations of NGF (0-10-20-50-100 ng/ml), that can directly bind both TrkA and p75 receptors, blocking the possible binding of G79 if it competes for the same receptors. Then, without washing the cells, G79 conjugated with FITC fluorescence (100 ng/ml) was added and so incubated the cells for 1 hour. Samples were read in a cytometer (FCAScan).
To detect the binding separately on both receptors, a prior incubation of cells (before NGF incubation) with blocking antibodies was made. The cells were preincubated for 1 hour with blocking antibody anti-p75 (1:100; Chemicon Int.), to detect the binding on TrkA, or blocking antibody anti-TrkA (1:200; AbCam) to detect the binding on p75. […] All the results are expressed as mean channel fluorescence (MCF), which is a measure of the cell surface fluorescence produced by G79-FITC binding.

Series [4] in a line: PAMPA model of passive BBB permeability. In kind it is in vitro ADME. Particulars: passive transport. The method, then:
PAMPA is used as an in vitro model of passive BBB permeability. An artificial membrane immobilized on a filter is placed between a donor and acceptor compartment. At the start of the test, a drug is introduced in the donor compartment. Following the permeation period, the concentration of the drug in the donor and acceptor compartments are measured using UV spectroscopy. Therefore the permeability of any compound with a UV chromophore can be determined by this method.
The tested compound stock solutions were diluted 200-fold in universal buffer at pH 7.4 and added to the donor wells. The filter membrane was coated with PBL in dodecane and the acceptor well was filled with pH 7.4 buffer. The acceptor filter plate was carefully put on the donor plate to form a ‘sandwich’ (consisting of the aqueous donor with test the compound on the bottom, an artificial lipid membrane in the middle, and an aqueous acceptor on the top). The test compound diffused from the donor well through the lipid membrane and into the acceptor well. The ‘sandwich’ was left undisturbed for 18 hrs while the permeation occurred. The concentration of the test compound in the acceptor, the donor, and the reference wells was determined using the UV plate reader. Effective permeability (Pe) of each compound was calculated by using the pION PSR4p software. Samples were analyzed in triplicate and the average of the three runs was reported. Quality control standards were run with each sample set to monitor the consistency of the analysis set.
For orientation: PAMPA measures passive passage across an artificial lipid membrane.

T2 sequence (Q63604 32-821): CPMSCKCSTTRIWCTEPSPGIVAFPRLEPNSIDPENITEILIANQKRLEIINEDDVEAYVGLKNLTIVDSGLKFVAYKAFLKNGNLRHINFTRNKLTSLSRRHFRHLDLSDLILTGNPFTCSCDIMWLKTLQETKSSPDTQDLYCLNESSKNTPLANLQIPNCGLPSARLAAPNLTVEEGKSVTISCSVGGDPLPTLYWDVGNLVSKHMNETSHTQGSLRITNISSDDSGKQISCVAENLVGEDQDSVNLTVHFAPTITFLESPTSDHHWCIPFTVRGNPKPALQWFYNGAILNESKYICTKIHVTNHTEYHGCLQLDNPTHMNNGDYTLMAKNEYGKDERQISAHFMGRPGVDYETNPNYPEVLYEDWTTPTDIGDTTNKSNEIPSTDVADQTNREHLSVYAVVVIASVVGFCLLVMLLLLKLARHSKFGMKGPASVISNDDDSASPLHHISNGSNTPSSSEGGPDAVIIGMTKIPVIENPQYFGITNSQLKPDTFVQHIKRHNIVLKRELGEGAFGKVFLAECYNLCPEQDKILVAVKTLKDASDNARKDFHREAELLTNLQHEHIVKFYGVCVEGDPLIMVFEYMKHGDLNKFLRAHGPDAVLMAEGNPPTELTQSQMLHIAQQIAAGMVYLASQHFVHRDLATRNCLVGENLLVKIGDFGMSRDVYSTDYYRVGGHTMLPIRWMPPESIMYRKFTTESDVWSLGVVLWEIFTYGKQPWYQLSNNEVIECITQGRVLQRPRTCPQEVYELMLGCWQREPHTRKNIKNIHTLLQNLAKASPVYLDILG
T1 sequence (P35739 33-799): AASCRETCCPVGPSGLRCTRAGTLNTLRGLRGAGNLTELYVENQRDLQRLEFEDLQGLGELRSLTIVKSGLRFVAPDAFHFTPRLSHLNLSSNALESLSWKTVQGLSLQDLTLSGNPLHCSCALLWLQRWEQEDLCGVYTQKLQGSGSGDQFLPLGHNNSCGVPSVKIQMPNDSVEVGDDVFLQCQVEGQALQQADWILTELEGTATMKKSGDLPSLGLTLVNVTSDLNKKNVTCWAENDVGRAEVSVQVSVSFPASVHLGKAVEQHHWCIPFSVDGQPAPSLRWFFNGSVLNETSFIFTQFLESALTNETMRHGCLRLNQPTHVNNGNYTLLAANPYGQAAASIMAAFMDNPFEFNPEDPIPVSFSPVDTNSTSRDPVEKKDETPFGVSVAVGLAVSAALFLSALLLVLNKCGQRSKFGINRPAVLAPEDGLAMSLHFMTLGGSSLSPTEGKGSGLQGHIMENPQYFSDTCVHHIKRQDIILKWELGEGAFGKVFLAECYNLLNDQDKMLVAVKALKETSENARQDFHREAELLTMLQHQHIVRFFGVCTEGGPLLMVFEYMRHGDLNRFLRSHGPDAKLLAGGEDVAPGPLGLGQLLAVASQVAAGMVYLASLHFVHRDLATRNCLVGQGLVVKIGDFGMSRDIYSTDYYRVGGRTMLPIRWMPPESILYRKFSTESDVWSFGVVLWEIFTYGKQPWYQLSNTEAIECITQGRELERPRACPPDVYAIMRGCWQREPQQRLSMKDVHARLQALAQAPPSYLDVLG

In the case of `CC(C)CN(CC(=O)N(CCCN1CCCC1=O)CC(N)=O)C(=O)CNCCc1ccccc1F` [Compound G79, [N-(2-(2′-Fluorophenyl)ethyl)glycyl]-[N-(2-methylpropyl)glycyl]-N-[3-(2′-oxopyrrolidinyl)propyl]glycinamide], the “TrkA phosphorilation (phospho-TrkA, Tyr490)” value in series [1] is recorded as “phosphorilated already after 5 min”. Further, in series [2], the “TrkB phosphorilation (phospho-TrkB, Tyr515)” value was “phosphorilated already after 5 min”. Further, the “binding on p75 (MCF of G79-FITC)” value in series [3] is listed as “could bind on p75 receptor”. Besides, the “crossing the BBB in the PAMPA model (in words)” value in series [4] is recorded as “unable to cross the BBB in the PAMPA model”.
